Assay results reported in US10745363B2 (NORATECH PHARMACEUTICALS, INC., priority 2016, dated 2020).
Counter-ions that a name gives are not always drawn. Blank lines part the entries; values can stand above or below the compound they belong to.

Tests used:
[1] = Determination of hygroscopicity (water absorption in open weighing bottle, artificial climate chamber); format: physicochemical; details: 25±1° C., relative humidity 43.5±2%; for Water absorption, %: open weighing bottle, disodium salt
Procedure: 1. Take a dry stuffed glass weighing bottle (outer diameter 50 mm, height 15 mm) in the artificial climate chamber (set temperature is 25±1° C., relative humidity is 43.5±2%) and weight it (m1).
2. Take the appropriate amount of the crystalline form in the present invention, and place it in the abovementioned weighing bottle and lay it inside the weighing bottle. The thickness of the test sample is generally about 1 mm. Weight the sample (m2).
3. Uncover the weighing bottle and place it with the bottle cap under constant temperature and humidity (set temperature is 25±1° C., relative humidity is 43.5±2%).
4. Put the cap back on the weighing bottle before weighing, and then weight it (m3). The water absorption percentage for each time point is calculated by the formula=(m3−m2)/(m2−m1)×100%.

[2] = cited from earlier work

Structure (SMILES): CCCCC(=O)N(Cc1ccc(-c2ccccc2-c2nnn[nH]2)cc1)[C@H](C(=O)O)C(C)C [Crystalline form A, valsartan disodium salt]
- Water absorption, % ([1]; 2 h, listed as A): 1.6%
- water absorption ([1]; 3 hours, open container): 2.6%
- Water absorption, % ([1]; 4 h, listed as A): 2.0%
- Water absorption, % ([1]; 24 h, listed as A): 2.4%

Structure (SMILES): CCCCC(=O)N(Cc1ccc(-c2ccccc2-c2nnn[nH]2)cc1)[C@H](C(=O)O)C(C)C [Crystalline form G, valsartan disodium salt]
- Water absorption, % ([1]; 2 h, listed as G): 0.7%
- Water absorption, % ([1]; 4 h, listed as G): 1.3%
- Water absorption, % ([1]; 24 h, listed as G): 1.5%

Structure (SMILES): CCCCC(=O)N(Cc1ccc(-c2ccccc2-c2nnn[nH]2)cc1)[C@H](C(=O)O)C(C)C [Valsartan sodium salt]
- hygroscopicity (in words) ([2]; background statement): hygroscopic

Structure (SMILES): CCCCC(=O)N(Cc1ccc(-c2ccccc2-c2nnn[nH]2)cc1)[C@H](C(=O)O)C(C)C [valsartan disodium salt]
- hygroscopicity ([2]; equilibrated in air, 5.36 mol H2O by elemental analysis (CN01813039.9)): up to 20%

Now from value to compound:

- Water absorption, % ([1]; 2 h, listed as B): 1.9%
- Water absorption, % ([1]; 4 h, listed as B): 2.3%
- Water absorption, % ([1]; 24 h, listed as B): 3.0%
Structure (SMILES): CCCCC(=O)N(Cc1ccc(-c2ccccc2-c2nnn[nH]2)cc1)[C@H](C(=O)O)C(C)C [Crystalline form B, valsartan disodium salt]

- Water absorption, % ([1]; 2 h, listed as D): 1.3%
- Water absorption, % ([1]; 4 h, listed as D): 1.9%
- Water absorption, % ([1]; 24 h, listed as D): 2.7%
Structure (SMILES): CCCCC(=O)N(Cc1ccc(-c2ccccc2-c2nnn[nH]2)cc1)[C@H](C(=O)O)C(C)C [Crystalline form D, valsartan disodium salt]

- Water absorption, % ([1]; 2 h, listed as E): 2.1%
- Water absorption, % ([1]; 4 h, listed as E): 2.9%
- Water absorption, % ([1]; 24 h, listed as E): 3.6%
Structure (SMILES): CCCCC(=O)N(Cc1ccc(-c2ccccc2-c2nnn[nH]2)cc1)[C@H](C(=O)O)C(C)C [Crystalline form E, valsartan disodium salt]

- Water absorption, % ([1]; 2 h, listed as F): 1.7%
- Water absorption, % ([1]; 4 h, listed as F): 2.2%
- Water absorption, % ([1]; 24 h, listed as F): 2.8%
Structure (SMILES): CCCCC(=O)N(Cc1ccc(-c2ccccc2-c2nnn[nH]2)cc1)[C@H](C(=O)O)C(C)C [Crystalline form F, valsartan disodium salt]

- Water absorption, % ([1]; 2 h, listed as H): 2.0%
- Water absorption, % ([1]; 4 h, listed as H): 2.8%
- Water absorption, % ([1]; 24 h, listed as H): 4.0%
Structure (SMILES): CCCCC(=O)N(Cc1ccc(-c2ccccc2-c2nnn[nH]2)cc1)[C@H](C(=O)O)C(C)C [Crystalline form H, valsartan disodium salt]
